Among the data in patent US12577226B2, “Compounds for treating Huntington's disease” (PTC THERAPEUTICS, INC., priority 2019, dated 2026) are IC50 values, retold here.

Structures are written as SMILES. pIC50: −log10 of the molar value. Where only a bound is given, the exact number is not on record here.

This experiment relates to Endogenous Huntingtin Protein (capture with MW1 (expanded polyglutamine) or MAB2166 antibody). As to the kind of experiment: Endogenous Huntingtin Protein Assay (ELISA-based Meso Scale Discovery electrochemiluminescence assay). The following applies: MSD electrochemiluminescence platform. It counts as cell-based. Summed up: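 MSD electrochemiluminescence sandwich immunoassay: plates coated with 1 μg/mL MW1 or MAB2166 capture antibody, samples incubated overnight at 4 °C. Detection with rabbit monoclonal #5656S then SULFO-TAG anti-rabbit (each 0.25 μg/mL, 1 h RT).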
With `CN(c1ncc(-c2ncc(-c3cn[nH]c3F)cc2O)nn1)C1CC(C)(C)NC(C)(C)C1` [Compound 143, 5-(5-fluoro-1H-pyrazol-4-yl)-2-{3-[methyl(2,2,6,6-tetramethylpiperidin-4-yl)amino]-1,2,4-triazin-6-yl}pyridin-3-ol], the pIC50 is 6.30 to 7.00. `CN(c1ncc(-c2ncc(-n3nccn3)cc2O)nn1)C1CC(C)(C)NC(C)(C)C1` [Compound 144, 2-{3-[methyl(2,2,6,6-tetramethylpiperidin-4-yl)amino]-1,2,4-triazin-6-yl}-5-(2H-1,2,3-triazol-2-yl)pyridin-3-ol]: the pIC50 is not below 7.00. Regarding `CC(C)(C)N[C@H]1CCN(c2ncc(-c3ncc(-c4c[nH]nc4F)cc3O)nn2)C1` [Compound 145, 2-{3-[(3S)-3-(tert-butylamino)pyrrolidin-1-yl]-1,2,4-triazin-6-yl}-5-(3-fluoro-1H-pyrazol-4-yl)pyridin-3-ol], the pIC50 was not below 7.00. Turning to `COc1cc(-c2cnc(-c3cnc(N4CC[C@@H](NC(C)(C)C)C4)nn3)c(O)c2)cc2cn(C)nc12` [Compound 146, 2-{3-[(3R)-3-(tert-butylamino)pyrrolidin-1-yl]-1,2,4-triazin-6-yl}-5-(7-methoxy-2-methyl-2H-indazol-5-yl)pyridin-3-ol], the pIC50 is not below 7.00. In the case of `Cc1cn2cc(-c3cnc(-c4cnc(N5CC[C@@H](NC(C)(C)C)C5)nn4)c(O)c3)cc(C#N)c2n1` [Compound 147, 6-(6-{3-[(3R)-3-(tert-butylamino)pyrrolidin-1-yl]-1,2,4-triazin-6-yl}-5-hydroxypyridin-3-yl)-2-methylimidazo[1,2-a]pyridine-8-carbonitrile], the pIC50 was 6.30 to 7.00. With `CCc1cc(-c2cnc(-c3cnc(N4CC[C@@H](NC(C)(C)C)C4)nn3)c(O)c2)cn2cc(C)nc12` [Compound 148, 2-{3-[(3R)-3-(tert-butylamino)pyrrolidin-1-yl]-1,2,4-triazin-6-yl}-5-(8-ethyl-2-methylimidazo[1,2-a]pyridin-6-yl)pyridin-3-ol] the figure was 6.30 to 7.00; with `COc1cc(-c2cnc(-c3cnc(N4CCN(C)CC4)nn3)c(O)c2)cc2cn(C)nc12` [Compound 150, 5-(7-methoxy-2-methyl-2H-indazol-5-yl)-2-[3-(4-methylpiperazin-1-yl)-1,2,4-triazin-6-yl]pyridin-3-ol], not below 7.00; with `Cc1cn2cc(-c3cnc(-c4cnc(N5CCN(C)CC5)nn4)c(O)c3)cc(F)c2n1` [Compound 151, 5-(8-fluoro-2-methylimidazo[1,2-a]pyridin-6-yl)-2-[3-(4-methylpiperazin-1-yl)-1,2,4-triazin-6-yl]pyridin-3-ol], not below 7.00. With `CN1CCN(c2ncc(-c3ncc(-c4cn[nH]c4)cc3O)nn2)CC1` [Compound 152, 2-[3-(4-methylpiperazin-1-yl)-1,2,4-triazin-6-yl]-5-(1H-pyrazol-4-yl)pyridin-3-ol] the figure was 6.00 to 6.30; with `Cc1cn2cc(-c3cnc(-c4cnc(N5CCN(C)CC5)nn4)c(O)c3)cc(C)c2n1` [Compound 153, 5-(2,8-dimethylimidazo[1,2-a]pyridin-6-yl)-2-[3-(4-methylpiperazin-1-yl)-1,2,4-triazin-6-yl]pyridin-3-ol], not below 7.00.

In turn, `Cc1cnc(Nc2cnc(-c3cnc(N4CCN[C@@H](C(C)C)C4)nn3)c(O)c2)cn1` [Compound 154, 5-[(5-methylpyrazin-2-yl)amino]-2-[3-[(3S)-3-(propan-2-yl)piperazin-1-yl]-1,2,4-triazin-6-yl}pyridin-3-ol] gave a pIC50 not below 7.00.

In turn, `CC(C)[C@H]1CN(c2ncc(-c3ncc(-c4cc(F)c5nn(C)cc5c4)cc3O)nn2)CCN1` [Compound 155, 5-(7-fluoro-2-methyl-2H-indazol-5-yl)-2-{3-[(3S)-3-(propan-2-yl)piperazin-1-yl]-1,2,4-triazin-6-yl}pyridin-3-ol] had a pIC50 not below 7.00.

`CC(C)[C@H]1CN(c2ncc(-c3ncc(-n4nccn4)cc3O)nn2)CCN1` [Compound 156, 2-{3-[(3S)-3-(propan-2-yl)piperazin-1-yl]-1,2,4-triazin-6-yl}-5-(2H-1,2,3-triazol-2-yl)pyridin-3-ol] showed a pIC50 of 6.30 to 7.00. `Cn1nc2cc(-c3cnc(-c4cnc(N5CCN[C@@H](C6CC6)C5)nn4)c(O)c3)cnc2n1` [Compound 157, 2-{3-[(3S)-3-cyclopropylpiperazin-1-yl]-1,2,4-triazin-6-yl}-5-(2-methyl-2H-[1,2,3]triazolo[4,5-b]pyridin-6-yl)pyridin-3-ol] showed a pIC50 not below 7.00. Then `Cn1cc2cc(-c3cnc(-c4cnc(N5CCN[C@@H](C6CC6)C5)nn4)c(O)c3)cc(F)c2n1` [Compound 158, 2-{3-[(3S)-3-cyclopropylpiperazin-1-yl]-1,2,4-triazin-6-yl}-5-(7-fluoro-2-methyl-2H-indazol-5-yl)pyridin-3-ol], with not below 7.00.

As to `Oc1cc(-n2nccn2)cnc1-c1cnc(N2CCN[C@@H](C3CC3)C2)nn1` [Compound 159, 2-{3-[(3S)-3-cyclopropylpiperazin-1-yl]-1,2,4-triazin-6-yl}-5-(2H-1,2,3-triazol-2-yl)pyridin-3-ol], the pIC50 is 6.30 to 7.00. Then `Cc1cnc(Nc2cnc(-c3cnc(N4CCN[C@@H](C5CC5)C4)nn3)c(O)c2)cn1` [Compound 160, 2-{3-[(3S)-3-cyclopropylpiperazin-1-yl]-1,2,4-triazin-6-yl}-5-[(5-methylpyrazin-2-yl)amino]pyridin-3-ol], with not below 7.00; and `CN(c1cnc(-c2ncc(-n3nccn3)cc2O)nn1)C1CC(C)(C)NC(C)(C)C1` [Compound 161, 2-{6-[methyl(2,2,6,6-tetramethylpiperidin-4-yl)amino]-1,2,4-triazin-3-yl}-5-(2H-1,2,3-triazol-2-yl)pyridin-3-ol], with not below 7.00; and `CN(c1cnc(-c2ncc(-c3cn[nH]c3)cc2O)nn1)C1CC(C)(C)NC(C)(C)C1` [Compound 162, 2-{6-[methyl(2,2,6,6-tetramethylpiperidin-4-yl)amino]-1,2,4-triazin-3-yl}-5-(1H-pyrazol-4-yl)pyridin-3-ol], with not below 7.00.

As for `CC1(C)CC(Nc2cnc(-c3ncc(-n4nccn4)cc3O)nn2)CC(C)(C)N1` [Compound 163, 2-{6-[(2,2,6,6-tetramethylpiperidin-4-yl)amino]-1,2,4-triazin-3-yl}-5-(2H-1,2,3-triazol-2-yl)pyridin-3-ol], the pIC50 is not below 7.00.

Regarding `C[C@@H]1CN(c2cnc(-c3ncc(-c4cc(F)c5nn(C)cc5c4)cc3O)nn2)C[C@H](C)N1` [Compound 164, 2-{6-[(3R,5S)-3,5-dimethylpiperazin-1-yl]-1,2,4-triazin-3-yl}-5-(7-fluoro-2-methyl-2H-indazol-5-yl)pyridin-3-ol and 2-{6-[(3S,5R)-3,5-dimethylpiperazin-1-yl]-1,2,4-triazin-3-yl}-5-(7-fluoro-2-methyl-2H-indazol-5-yl)pyridin-3-ol], the pIC50 was 6.30 to 7.00.
